Columns and labels:
Format in all cases: cell-based, human
[1] = test system: BNIP3; assay: Western blotting of BNIP3 in LNCaP cells, normoxic or hypoxic; details: normoxic or hypoxic condition, M4N 80 μM
Text: LNCaP human prostate cancer, DU145 human prostate cancer, PC3 human prostate cancer, MCF-7 human breast cancer, MDA-MB-231 human breast cancer, MDA-MB-468 human breast cancer, HT29 human colon cancer, K562 human myelogenous leukaemia, HepG2 human hepatoma, Hep3B human hepatoma, and LN229 human glioblastoma cancer cell lines were purchased from American Type Culture Collection (Manassas, Va.). OC24 human ascites ovarian cancer cell line was a generous gift from Dr. XXX (Johns Hopkins University, MD). LNCaP cell line was cultured in RPMI1640 medium supplemented with glucose (14 mM), pyruvate (1 mM), and fetal bovine serum (FBS) (10%). DU145 cell line was cultured in MEM supplemented with non-essential amino acids, glucose (21 mM), pyruvate (1 mM), and FBS (10%). PC3 cell line was cultured in F-12K medium supplemented with FBS (10%). MCF-7 cell line was cultured in DMEM supplemented with FBS (10%). OC24 cell line was cultured in RPMI1640 medium supplemented with FBS (10%) as suspension culture. MDA-MB-231 and 468 cell lines were cultured in Leibovitz's L15 medium supplemented with FBS (10%) under air. HT29 cell line was cultured in DMEM supplemented with glucose (25 mM) and FBS (10%). K562 cell line was cultured in RPMI1640 supplemented with FBS (10%). […] The signals were detected by western blot chemiluminescence reagent plus (New England Nuclear Life Science Products, Boston, Mass.). […]

[2] = test system: caspase-7; assay: Western blotting of caspase-7 cleavage in MCF-7 cells; details: MCF-7, 17 hrs; M4N 80 μM, etoposide 20 μM, rapamycin 20 μM, UCN-01 5 μM
Description: (§1) The sample volumes were adjusted by the total protein amount. Protein assay was performed by Bio-Rad Protein Assay (Bio-Rad Laboratories, Inc. Hercules, Calif.). The samples were resolved by the standard SDS-polyacrylamide gel electrophoresis and transferred to nitrocellulose membrane (Amersham Biosciences, Bjorkgatan, Sweden). The membranes were blocked with skim milk, and incubated with primary antibodies at 4° C. overnight and then with secondary antibody conjugated with horse radish peroxidase at room temperature for 2 hrs. The signals were detected by western blot chemiluminescence reagent plus (New England Nuclear Life Science Products, Boston, Mass.).
(§2) The effect of the combination treatments on cell death and autophagy was examined in two cell lines other than LNCaP cells.

[3] = test system: caspase-7; assay: Western blotting of caspase-7 cleavage in HepG2 cells; details: HepG2, 17 hrs; M4N 80 μM, etoposide 20 μM, rapamycin 20 μM, UCN-01 5 μM
Description: as §1, §2

| SMILES | BNIP3 protein expression [1] | caspase-7 cleavage [2] | caspase-7 cleavage product [3] |
| --- | --- | --- | --- |
| COc1ccc(C[C@@H](C)[C@@H](C)Cc2ccc(OC)c(OC)c2)cc1OC [M4N, Tetra-O-methyl nordihyroguaiaretic acid] | blocks BNIP3 protein expression |  |  |
| CN[C@@H]1C[C@H]2O[C@@](C)([C@@H]1OC)n1c3ccccc3c3c4c(c5c6ccccc6n2c5c31)C(=O)N[C@H]4O [UCN-01, 7-hydroxystaurosporine] |  | detected | great deal |

Reference: US9101567B2, “Suppression of cancer growth and metastasis using nordihydroguaiaretic acid derivatives with 7-hydroxystaurosporine” (The Johns Hopkins University, priority 2010, dated 2015)
